# Test results from ChEMBL document CHEMBL1145454, “Endiandrin A, a potent glucocorticoid receptor binder isolated from the Australian plant Endiandra anthropophagorum” (J Nat Prod, 2007).
# Target: T1, Glucocorticoid receptor (Homo sapiens, UniProt P04150)
# T1 sequence (P04150 whole entry): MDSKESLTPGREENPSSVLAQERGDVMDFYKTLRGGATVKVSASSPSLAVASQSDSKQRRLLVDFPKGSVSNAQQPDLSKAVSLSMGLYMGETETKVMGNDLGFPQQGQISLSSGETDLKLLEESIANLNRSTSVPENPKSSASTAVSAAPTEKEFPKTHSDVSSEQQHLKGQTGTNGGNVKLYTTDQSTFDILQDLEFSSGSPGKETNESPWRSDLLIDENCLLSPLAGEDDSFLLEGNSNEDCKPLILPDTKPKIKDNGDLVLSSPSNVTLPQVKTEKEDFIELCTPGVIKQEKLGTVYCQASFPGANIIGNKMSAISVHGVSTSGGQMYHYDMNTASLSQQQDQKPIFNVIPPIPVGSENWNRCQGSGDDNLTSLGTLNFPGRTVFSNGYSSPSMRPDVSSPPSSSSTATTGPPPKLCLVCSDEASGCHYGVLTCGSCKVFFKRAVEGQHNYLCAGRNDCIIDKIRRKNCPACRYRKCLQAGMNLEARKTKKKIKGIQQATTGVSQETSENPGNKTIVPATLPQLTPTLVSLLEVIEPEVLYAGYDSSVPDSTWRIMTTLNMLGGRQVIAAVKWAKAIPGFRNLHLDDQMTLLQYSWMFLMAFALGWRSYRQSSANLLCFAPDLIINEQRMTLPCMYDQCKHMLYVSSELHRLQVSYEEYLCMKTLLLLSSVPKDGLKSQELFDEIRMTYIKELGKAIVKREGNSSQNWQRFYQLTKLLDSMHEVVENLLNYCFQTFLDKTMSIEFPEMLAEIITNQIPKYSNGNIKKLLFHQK
# Experiment: Binding affinity to glucocorticoid receptor by GR binding assay
row,IC50 [µM],SMILES
1,34,COc1cc([C@@H]2[C@@H](C)[C@H](C)[C@H]2c2ccc(OC(C)=O)c(OC)c2)ccc1OC(C)=O [DI-O-ACETYLENDIANDRIN A]
2,13,COc1ccc([C@@H]2[C@@H](C)[C@H](C)[C@H]2c2ccc(OC)c(OC)c2)cc1OC [DI-O-METHYLENDIANDRIN A]
3,27,COc1cc([C@H]2O[C@@H](c3ccc(O)c(OC)c3)[C@H](C)[C@@H]2C)ccc1O [NECTANDRIN B]

# Continued, molecule first:
row,SMILES,IC50 [µM]
1,COc1cc(C[C@@H](C)[C@H](C)Cc2ccc(O)c(OC)c2)ccc1O [(-)-DIHYDROGUAIARETICACID],35
2,COc1cc([C@@H]2[C@@H](C)[C@H](C)[C@H]2c2ccc(O)c(OC)c2)ccc1O [ENDIANDRIN A],0.9
